Measurements from ChEMBL document CHEMBL1142630, “The application of HPLC with on-line coupled UV/MS-biochemical detection for isolation of an acetylcholinesterase inhibitor from narcissus 'Sir Winston Churchill'” (J Nat Prod, 2000).

Target: Acetylcholinesterase (Homo sapiens, UniProt P22303)
Assay: Inhibition of AChE by microplate assay

Sequence of Acetylcholinesterase (P22303 whole entry): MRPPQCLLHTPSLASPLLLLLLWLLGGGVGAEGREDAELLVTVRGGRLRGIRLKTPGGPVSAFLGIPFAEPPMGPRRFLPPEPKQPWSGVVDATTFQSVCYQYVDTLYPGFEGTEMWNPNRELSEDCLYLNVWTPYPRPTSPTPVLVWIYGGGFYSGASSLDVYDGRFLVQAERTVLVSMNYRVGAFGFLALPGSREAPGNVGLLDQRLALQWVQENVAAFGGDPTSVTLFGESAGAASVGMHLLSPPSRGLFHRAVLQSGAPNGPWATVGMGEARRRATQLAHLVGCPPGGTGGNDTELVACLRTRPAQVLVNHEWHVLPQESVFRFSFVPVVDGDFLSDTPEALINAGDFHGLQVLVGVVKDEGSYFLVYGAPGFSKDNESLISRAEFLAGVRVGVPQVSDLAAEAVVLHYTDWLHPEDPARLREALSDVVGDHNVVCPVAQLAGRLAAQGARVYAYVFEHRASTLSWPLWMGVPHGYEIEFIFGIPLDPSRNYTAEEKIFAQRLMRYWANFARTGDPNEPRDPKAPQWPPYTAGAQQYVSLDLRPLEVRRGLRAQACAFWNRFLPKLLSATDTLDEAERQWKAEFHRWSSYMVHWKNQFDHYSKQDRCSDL

With CO[C@@H]1[C@@H](O)[C@H]2c3cc4c(cc3CN3CC=C([C@H]1O)[C@H]23)OCO4 [UNGIMINORINE] as the compound, how does the IC50 read?
The IC50 was 86 µM.
